One test concerns IL-6. The test is described as follows: Whole bovine blood assay, LPS-induced IL-6. The note with it: fresh whole bovine blood, LPS stimulant; top drug concentration 250 μM. It is filed as cell-based.
Another test deals with TNF-α. The test is described as follows: Whole bovine blood assay, LPS-induced TNF-α. It is filed as cell-based. The note with it: fresh whole bovine blood, LPS stimulant; top drug concentration 250 μM. As for the experimental part: Whole Blood Assay-Fresh whole bovine blood samples were collected into heparinized vacutainer tubes. Assay plates were prepared with 25 μL of drug diluted in PBS at varying concentration in 96 round bottom wells, then 225 μL of blood was added and plates incubated at 37° C. for 4 hours. Cells were stimulated with LPS (or PBS for controls) by adding 25 μL to the plates at a final concentration of 1 μg/mL and incubated at 37° C. for 18 hours. To collect plasma, plates were centrifuged at 2,000×g for 10 minutes and 100 μL of supernatant was transferred to a 96 well polypropylene plate that was sealed and stored at −80° C. Samples were assayed for cytokines using the Meso Scale Discovery (MSD) platform (described below). This same MSD platform was used to assess cytokines in the plasma collected directly from drug treated animals.
Cytokine Detection—An MSD U-Plex cytokine assay was developed following the MSD U-Plex protocol guide and included biotinylated capture antibodies against: bovine Interleukin (IL)-1β (Biorad), bovine IL-6 (R&D Systems) and bovine tumor necrosis factor (TNF)-α (R&D Systems). […] Assay calibrators (Kingfisher) were diluted to a concentration of […] in control lithium heparin plasma, followed by 4-fold serial dilutions into plasma. […] Antibodies were used at the following concentrations: anti-IL-1β at 1 μg/mL, anti-IL-6 at 1 μg/mL and anti-TNF-α at 0.5 μg/mL. Cytokines were quantified according to manufacturer's instructions using a chemiluminescent readout. In brief, 0.5 mL of all biotinylated antibodies were diluted to 10 μg/mL with Diluent 100 and paired to their respective linkers by adding 750 μL of supplied Linker solution and incubated for 30 minutes followed by addition of Stop solution for another 30 minutes. The linked antibodies were then diluted 10-fold into Stop solution. Plates were coated by adding 50 μL of antibody solutions per well and incubated covered and shaking for 1 hour at room temperature. Plates were washed three times with PBS/Tween20 prior to samples or standards being added at 30 μL per well and incubated as above. Plates were washed three times before detection antibodies were added along with 2% goat and rabbit serum to block and incubated same as above. Plates were washed a further three times before addition of 150 μL 2X Read buffer and read immediately on the SI6000 instrument (MSD). For soluble protein levels, a BCA protein kit (Thermofisher) was used. The cytokine concentrations (pg/mL) were normalized to the total protein levels for each sample. [Bassel et. al., BMC Veterinary Research (2020) 16:168]
Therefore, a fresh whole bovine blood assay was developed with LPS as a stimulant (TLR-4 agonist) and with IL-1β and TNF-α as the read-out. Compounds of the invention were evaluated against a positive control for their ability to inhibit LPS-induced IL-1β and TNF-α as an overall evaluation of relative potency and modulation of target pathways.
TNFα is a cell signaling protein, cytokine, that plays a key role in both acute and chronic inflammation. In the bovine whole blood in vitro screening assay the inhibition of TNFα as induced by stimulation by lipopolysaccharide (LPS) and as measured by half the maximal inhibitory concentration (IC50) is recognized as the primary biomarker of immunomodulation potency upon pretreatment with the compounds of the invention. IL-1 B is a mediator of the inflammation response and is involved in a number of cellular activities including proliferation, differentiation and apoptosis. IL-1ß is also released upon cellular stress or cytotoxicity or upon TLR stimulation. […] In order to estimate a therapeutic index from the in vitro assay a differential between the TNFα IC50 (immunomodulation potency) versus the perceived cellular toxicity concentration (IL-1β release or overstimulation) was utilized.

As usually defined, the IC50 is the concentration that inhibits the measured activity by half. Turning to `CC[C@H]1OC(=O)[C@H](C)[C@@H](O)[C@H](C)[C@@H](O[C@H]2O[C@@H](C)C[C@@H](N(C)S(=O)(=O)Nc3ccccc3)[C@@H]2Oc2ccc(F)cc2)[C@](C)(O)C[C@@H](C)CN[C@H](C)[C@@H](O)[C@]1(C)O` [Example A-37], the IC50 with IL-6 came out at 46 µM; in the test on TNF-α, 19 µM. Consider `CC[C@H]1OC(=O)[C@H](C)[C@@H](O[C@H]2C[C@@](C)(OC)[C@](O)(CNCCC(C)C)[C@H](C)O2)[C@H](C)[C@@H](O[C@@H]2O[C@H](C)C[C@H](N(C)S(=O)(=O)c3ccc(Cl)cc3)[C@H]2O)[C@](C)(O)C[C@@H](C)CN[C@H](C)[C@@H](O)[C@]1(C)O` [Example B-21], for which the IC50 came out at 6 µM with IL-6 and 5 µM with TNF-α. Turning to `CC[C@H]1OC(=O)[C@H](C)[C@@H](O[C@H]2C[C@@](C)(OC)[C@](O)(CNC3CCCC3)[C@H](C)O2)[C@H](C)[C@@H](O[C@@H]2O[C@H](C)C[C@H](N(C)S(=O)(=O)c3ccc(Cl)cc3)[C@H]2O)[C@](C)(O)C[C@@H](C)CN[C@H](C)[C@@H](O)[C@]1(C)O` [Example B-22], in the test with TNF-α, 9 µM corresponded to half-maximal inhibition (IC50). In the test with TNF-α, `CC[C@H]1OC(=O)[C@H](C)[C@@H](O[C@H]2C[C@@](C)(OC)[C@](O)(CNCC3CC3)[C@H](C)O2)[C@H](C)[C@@H](O[C@@H]2O[C@H](C)C[C@H](N(C)S(=O)(=O)c3ccc(Cl)cc3)[C@H]2O)[C@](C)(O)C[C@@H](C)CN[C@H](C)[C@@H](O)[C@]1(C)O` [Example B-24] returned a concentration for half-maximal inhibition (IC50) of 10 µM. The IC50 values of the last two compounds are within 1.5-fold of each other.

In turn, `CC[C@H]1OC(=O)[C@H](C)[C@@H](O[C@H]2C[C@@](C)(OC)[C@](O)(CNc3ccccc3)[C@H](C)O2)[C@H](C)[C@@H](O[C@@H]2O[C@H](C)C[C@H](N(C)S(=O)(=O)c3ccc(Cl)cc3)[C@H]2O)[C@](C)(O)C[C@@H](C)CN[C@H](C)[C@@H](O)[C@]1(C)O` [Example B-32] displayed a half-maximal inhibitory concentration (IC50) with TNF-α of 23 µM. Still for that read-out and setting: the figure for `CC[C@H]1OC(=O)[C@H](C)[C@@H](O[C@H]2C[C@@](C)(OC)[C@](O)(CNc3ccccc3)[C@H](C)O2)[C@H](C)[C@@H](O[C@@H]2O[C@H](C)C[C@H](N(C)S(=O)(=O)Nc3ccc(C(F)(F)F)cc3)[C@H]2O)[C@](C)(O)C[C@@H](C)CN[C@H](C)[C@@H](O)[C@]1(C)O` [Example B-64] is 8 µM; for `CC[C@H]1OC(=O)[C@H](C)[C@@H](O[C@H]2C[C@@](C)(OC)[C@](O)(CNCCC3CCOCC3)[C@H](C)O2)[C@H](C)[C@@H](O[C@@H]2O[C@H](C)C[C@H](N(C)S(=O)(=O)Nc3ccc(C(F)(F)F)cc3)[C@H]2O)[C@](C)(O)C[C@@H](C)CN[C@H](C)[C@@H](O)[C@]1(C)O` [Example B-66] it is 30 µM. `CC[C@H]1OC(=O)[C@H](C)[C@@H](O[C@H]2C[C@@](C)(OC)[C@](O)(CNC3CCCCC3)[C@H](C)O2)[C@H](C)[C@@H](O[C@@H]2O[C@H](C)C[C@H](N(C)S(=O)(=O)Nc3ccc(C(F)(F)F)cc3)[C@H]2O)[C@](C)(O)C[C@@H](C)CN[C@H](C)[C@@H](O)[C@]1(C)O` [Example B-69]: the IC50 with IL-6 worked out at 16 µM. Compound `CC[C@H]1OC(=O)[C@H](C)[C@@H](O[C@H]2C[C@@](C)(OC)[C@](O)(CNCCCOC)[C@H](C)O2)[C@H](C)[C@@H](O[C@@H]2O[C@H](C)C[C@H](N(C)S(=O)(=O)Nc3ccc(C(F)(F)F)cc3)[C@H]2O)[C@](C)(O)C[C@@H](C)CN[C@H](C)[C@@H](O)[C@]1(C)O` [Example B-78] registered a concentration for half-maximal inhibition (IC50) with TNF-α of 21 µM.

The compound `CCOCCNC[C@]1(O)[C@H](C)O[C@@H](O[C@H]2[C@H](C)[C@@H](O[C@@H]3O[C@H](C)C[C@H](N(C)S(=O)(=O)Nc4ccc(C(F)(F)F)cc4)[C@H]3O)[C@](C)(O)C[C@@H](C)CN[C@H](C)[C@@H](O)[C@](C)(O)[C@@H](CC)OC(=O)[C@@H]2C)C[C@@]1(C)OC` [Example B-83] came in with a concentration for half-maximal inhibition (IC50) in the test with TNF-α of 30 µM. Turning to `CC[C@H]1OC(=O)[C@H](C)[C@@H](O[C@H]2C[C@@](C)(OC)[C@](O)(CNCCOC)[C@H](C)O2)[C@H](C)[C@@H](O[C@@H]2O[C@H](C)C[C@H](N(C)S(=O)(=O)Nc3ccc(C(F)(F)F)cc3)[C@H]2O)[C@](C)(O)C[C@@H](C)CN[C@H](C)[C@@H](O)[C@]1(C)O` [Example B-84], the concentration for half-maximal inhibition (IC50) with TNF-α came to 51 µM. As to `CCCNC[C@]1(O)[C@H](C)O[C@@H](O[C@H]2[C@H](C)[C@@H](O[C@@H]3O[C@H](C)C[C@H](N(C)S(=O)(=O)c4nccn4C)[C@H]3Oc3ccc(F)cc3C)[C@](C)(O)C[C@@H](C)CN[C@H](C)[C@@H](O)[C@](C)(O)[C@@H](CC)OC(=O)[C@@H]2C)C[C@@]1(C)OC` [Example B-121], 5 µM corresponded to half-maximal inhibition in the test on IL-6 (IC50). In the test with IL-6, `CC[C@H]1OC(=O)[C@H](C)[C@@H](O[C@H]2C[C@@](C)(OC)[C@](O)(CNCCS(=O)(=O)c3ccccc3)[C@H](C)O2)[C@H](C)[C@@H](O[C@@H]2O[C@H](C)C[C@H](N(C)S(=O)(=O)Nc3ccc(C(F)(F)F)cc3)[C@H]2O)[C@](C)(O)C[C@@H](C)CN[C@H](C)[C@@H](O)[C@]1(C)O` [Example B-128] displayed an IC50 of 23 µM. Against the preceding compound, the IC50 is about 4.6-fold higher. With `CC[C@H]1OC(=O)[C@H](C)[C@@H](O[C@H]2C[C@@](C)(OC)[C@](O)(CN3CCc4ccccc4C3)[C@H](C)O2)[C@H](C)[C@@H](O[C@@H]2O[C@H](C)C[C@H](N(C)S(=O)(=O)c3ccc(Cl)cc3)[C@H]2O)[C@](C)(O)C[C@@H](C)CN[C@H](C)[C@@H](O)[C@]1(C)O` [Example C-10], in the test on TNF-α, the half-maximal inhibitory concentration (IC50) was 23 µM.

As for `CC[C@H]1OC(=O)[C@H](C)[C@@H](O[C@H]2C[C@@](C)(OC)[C@](O)(CN3CCCCC3)[C@H](C)O2)[C@H](C)[C@@H](O[C@@H]2O[C@H](C)C[C@H](N(C)S(=O)(=O)Nc3ccc(Br)cc3)[C@H]2O)[C@](C)(O)C[C@@H](C)CN[C@H](C)[C@@H](O)[C@]1(C)O` [Example C-29], the IC50 in the test with TNF-α came out at 14 µM. As for `CC[C@H]1OC(=O)[C@H](C)[C@@H](O[C@H]2C[C@@](C)(OC)[C@](O)(CN3CCCCC3)[C@H](C)O2)[C@H](C)[C@@H](O[C@@H]2O[C@H](C)C[C@H](N(C)S(=O)(=O)Nc3ccc(I)cc3)[C@H]2O)[C@](C)(O)C[C@@H](C)CN[C@H](C)[C@@H](O)[C@]1(C)O` [Example C-30], the IC50 in the test on TNF-α came to 9 µM. As for `CC[C@H]1OC(=O)[C@H](C)[C@@H](O[C@H]2C[C@@](C)(OC)[C@](O)(CN3CCCCC3)[C@H](C)O2)[C@H](C)[C@@H](O[C@@H]2O[C@H](C)C[C@H](N(C)S(=O)(=O)Nc3ccc(Cl)c(C(F)(F)F)c3)[C@H]2O)[C@](C)(O)C[C@@H](C)CN[C@H](C)[C@@H](O)[C@]1(C)O` [Example C-31], the midpoint of inhibition in the test on TNF-α, the IC50, lay at 8 µM. In the case of `CC[C@H]1OC(=O)[C@H](C)[C@@H](O[C@H]2C[C@@](C)(OC)[C@](O)(CN3CCCCC3)[C@H](C)O2)[C@H](C)[C@@H](O[C@@H]2O[C@H](C)C[C@H](N(CC(C)C)S(=O)(=O)c3ccc(OC)cc3)[C@H]2O)[C@](C)(O)C[C@@H](C)CN[C@H](C)[C@@H](O)[C@]1(C)O` [Example C-43], half-maximal inhibition in the test on IL-6 (IC50) required 4 µM. This counts as single-digit micromolar. As for `CC[C@H]1OC(=O)[C@H](C)[C@@H](O[C@H]2C[C@@](C)(OC)[C@](O)(CN3CCCCC3)[C@H](C)O2)[C@H](C)[C@@H](O[C@@H]2O[C@H](C)C[C@H](N(C)S(=O)(=O)c3ccc(S(F)(F)(F)(F)F)cc3)[C@H]2O)[C@](C)(O)C[C@@H](C)CN[C@H](C)[C@@H](O)[C@]1(C)O` [Example C-47], in the test on IL-6, inhibition was half-maximal at 4 µM (IC50). As for `CC[C@H]1OC(=O)[C@H](C)[C@@H](O[C@H]2C[C@@](C)(OC)[C@](O)(CN3CCCCC3)[C@H](C)O2)[C@H](C)[C@@H](O[C@@H]2O[C@H](C)C[C@H](N(C)S(=O)(=O)Nc3ccccc3)[C@H]2Oc2ccc(F)cc2)[C@](C)(O)C[C@@H](C)CN[C@H](C)[C@@H](O)[C@]1(C)O` [Example C-51], the IC50 in the test with TNF-α was determined as 9 µM. With `CC[C@H]1OC(=O)[C@H](C)[C@@H](O[C@H]2C[C@@](C)(OC)[C@](O)(CN3CCCCC3)[C@H](C)O2)[C@H](C)[C@@H](O[C@@H]2O[C@H](C)C[C@H](N(C)S(=O)(=O)Nc3ccccc3)[C@H]2Oc2ccccc2)[C@](C)(O)C[C@@H](C)CN[C@H](C)[C@@H](O)[C@]1(C)O` [Example C-52], the IC50 in the test with TNF-α amounted to 15 µM.

Source of the values: patent US20250236616A1, “IMMUNOMODULATING AZALIDES” (Zoetis Services LLC, priority 2021, published 2025).
